From US20190345138A1, “HETEROCYCLIC AMIDES AS KINASE INHIBITORS” (GlaxoSmithKline Intellectual Property Development Limited, priority 2016, published 2019)
Several values for one entry are separate records, joined by “and”; a condition that tells them apart may be missing. Equal entries are not always repeated. Where two headings read alike, the source gives them in different places.

Columns and labels:
RIP1 kinase = target: T1, RIP1 kinase (Homo sapiens, UniProt Q13546); assay: fluorescent polarization based binding assay; conditions: mean of a minimum of 2 experiments
T1 sequence (Q13546 1-375 limits assumed): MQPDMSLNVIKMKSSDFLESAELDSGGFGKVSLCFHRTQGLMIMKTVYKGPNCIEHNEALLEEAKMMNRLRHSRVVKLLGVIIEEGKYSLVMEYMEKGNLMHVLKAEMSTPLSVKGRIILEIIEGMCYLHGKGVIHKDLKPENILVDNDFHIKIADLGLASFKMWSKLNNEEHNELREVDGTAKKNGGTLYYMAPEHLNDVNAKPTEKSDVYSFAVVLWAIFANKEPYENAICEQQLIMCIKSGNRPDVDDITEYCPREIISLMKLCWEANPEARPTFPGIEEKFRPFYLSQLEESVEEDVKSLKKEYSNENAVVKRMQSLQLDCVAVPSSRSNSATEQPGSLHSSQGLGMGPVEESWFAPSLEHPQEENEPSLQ
Description: A fluorescent polarization based binding assay was used to assess the activity of the compounds of this invention, the details of which are disclosed in International Patent Appln. No. PCT/IB2014/059004, now, International Patent Appln. Pub.

[1] = tested on: human monocytic leukemia U937 cells; assay: necroptosis assay in U937 cells; format: cell-based; conditions: viability by cellular ATP (Cell Titer-Glo); for IC50: Homo sapiens, U-937, U937 cells, read-out: pIC50, inhibited necrosis in U937 cells (converted)
Procedure, shortened: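 Necroptosis was induced in human U937 or mouse L929 cells, and viability was quantified as cellular ATP with Cell Titer-Glo. Data are means±standard deviation.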

[2] = tested on: mouse L929 fibrosarcoma cells; assay: necroptosis assay in L929 cells; format: cell-based; conditions: viability by cellular ATP (Cell Titer-Glo), read-out: pIC50, inhibited necrosis in L929 cells (converted)
Method: The efficacy of RIP1 inhibitors can be tested […] in vitro using a human monocytic leukemia U937 or mouse L929 fibrosarcoma cells in a necroptosis assay. As determined using the method described in S. He et al., Cell, 137(6):1100-1111 (2009) and International Patent Appln. No. PCT/IB2014/059004, now, International Patent Appln. Pub.
Viability was measured by quantitating cellular levels of ATP using the Cell Titer-Glo kit. All data are means±standard deviation of the mean.

IC50 (RIP1 kinase) | Compound | IC50 [1] | IC50 ([2]; L929 cells) | IC50 ([2]; L929, L929 cells) | pIC50, inhibited necrosis in U937 cells ([1]; U937 cells)
1 to 31.6 nM | CC(=O)Nc1ccnc(N2CCC(C(=O)N3N=CC[C@H]3c3cc(F)ccc3F)CC2)n1 [Example 118, (S)—N-(2-(4-(5-(2,5-difluorophenyl)-4,5-dihydro-1H-pyrazole-1-carbonyl)piperidin-1-yl)pyrimidin-4-yl)acetamide] | 1 to 100 nM | 1 to 100 nM |  | 
1 to 31.6 nM and 1 to 10 nM | NC(=O)c1nc(N2CCC(C(=O)N3N=CC[C@H]3c3ccccc3)CC2)ncc1F [Example 162, (S)-5-fluoro-2-(4-(5-phenyl-4,5-dihydro-1H-pyrazole-1-carbonyl)piperidin-1-yl)pyrimidine-4-carboxamide] | 1 to 100 nM | 1 to 100 nM |  | 
1 to 31.6 nM and 1 to 10 nM | N#Cc1cc(N2CCC(C(=O)N3N=CC[C@H]3c3cc(F)ccc3F)CC2)ncn1 [Example 104, (S)-6-(4-(5-(2,5-difluorophenyl)-4,5-dihydro-1H-pyrazole-1-carbonyl)piperidin-1-yl)pyrimidine-4-carbonitrile] | 1 to 100 nM | 1 to 100 nM |  | 
~50.1 nM | O=C(O)c1ncnc(N2CCC(C(=O)N3N=CC[C@H]3c3ccccc3)CC2)c1F [Example 159, (S)-5-fluoro-6-(4-(5-phenyl-4,5-dihydro-1H-pyrazole-1-carbonyl)piperidin-1-yl)pyrimidine-4-carboxylic acid] |  | ~251 nM |  | 
1 to 31.6 nM | O=C(NCCO)c1ccnc(N2CCC(C(=O)N3N=CC[C@H]3c3ccccc3)CC2)n1 [Example 126, (S)-N-(2-hydroxyethyl)-2-(4-(5-phenyl-4,5-dihydro-1H-pyrazole-1-carbonyl)piperidin-1-yl)pyrimidine-4-carboxamide] | 1 to 100 nM |  |  | 
1 to 31.6 nM and 1 to 10 nM | CCN(CC)C(=O)c1ccnc(N2CCC(C(=O)N3N=CC[C@H]3c3ccccc3)CC2)n1 [Example 142, (S)-N,N-diethyl-2-(4-(5-phenyl-4,5-dihydro-1H-pyrazole-1-carbonyl)piperidin-1-yl)pyrimidine-4-carboxamide] | 1 to 100 nM |  |  | 
1 to 31.6 nM and 1 to 10 nM | O=C1NCCC1c1nc(N2CCC(C(=O)N3N=CC[C@H]3c3ccccc3)CC2)ncc1F (stereo partly drawn) [Example 150, 3-(5-fluoro-2-(4-((S)-5-phenyl-4,5-dihydro-1H-pyrazole-1-carbonyl)piperidin-1-yl)pyrimidin-4-yl)pyrrolidin-2-one] | 1 to 100 nM |  |  | 
1 to 31.6 nM | O=C(C1CCN(c2nccc(CO)n2)CC1)N1N=CC[C@H]1c1ccccc1 [Example 130, (S)-(1-(4-(hydroxymethyl)pyrimidin-2-yl)piperidin-4-yl)(5-phenyl-4,5-dihydro-1H-pyrazol-1-yl)methanone] | 1 to 100 nM |  |  | 
1 to 31.6 nM | CN1CCN(C(=O)c2ccnc(N3CCC(C(=O)N4N=CC[C@H]4c4ccccc4)CC3)n2)CC1 [Example 141, (S)-(4-methylpiperazin-1-yl)(2-(4-(5-phenyl-4,5-dihydro-1H-pyrazole-1-carbonyl)piperidin-1-yl)pyrimidin-4-yl)methanone] | 1 to 100 nM |  |  | 
1 to 31.6 nM and 1 to 10 nM | N#Cc1coc(N2CCC(C(=O)N3N=CC[C@H]3c3cc(F)cc(F)c3)CC2)n1 [Example 135, (S)-2-(4-(5-(3,5-difluorophenyl)-4,5-dihydro-1H-pyrazole-1-carbonyl)piperidin-1-yl)oxazole-4-carbonitrile] | 1 to 100 nM |  |  | 

More lines, now with the values behind:

Compound | IC50 (RIP1 kinase) | IC50 [1] | IC50 ([2]; L929 cells) | IC50 ([2]; L929, L929 cells) | pIC50, inhibited necrosis in U937 cells ([1]; U937 cells)
N#Cc1cc(N2CCC(C(=O)N3N=CC[C@H]3c3ccccc3)CC2)ncn1 [Example 14, (S)-6-(4-(5-phenyl-4,5-dihydro-1H-pyrazole-1-carbonyl)piperidin-1-yl)pyrimidine-4-carbonitrile] | 1 to 31.6 nM and 1 to 10 nM | 1 to 100 nM | 1 to 100 nM |  | 
O=C(C1CCN(c2ncc3cn[nH]c3n2)CC1)N1N=CC[C@H]1c1cc(F)cc(F)c1 [Example 86, (S)-(1-(1H-pyrazolo[3,4-d]pyrimidin-6-yl)piperidin-4-yl)(5-(3,5-difluorophenyl)-4,5-dihydro-1H-pyrazol-1-yl)methanone] |  | 1 to 100 nM | 1 to 100 nM |  | 
Nc1nc(N2CCC(C(=O)N3N=CC[C@H]3c3cc(F)cc(F)c3)CC2)ncc1F [Example 81, (S)-(1-(4-amino-5-fluoropyrimidin-2-yl)piperidin-4-yl)(5-(3,5-difluorophenyl)-4,5-dihydro-1H-pyrazol-1-yl)methanone] | 1 to 31.6 nM and 1 to 10 nM | 1 to 100 nM | 1 to 100 nM |  | 
NC(=O)c1ccnc(N2CCC(C(=O)N3N=CC[C@H]3c3cc(F)ccc3F)CC2)n1 [Example 102, (S)-2-(4-(5-(2,5-difluorophenyl)-4,5-dihydro-1H-pyrazole-1-carbonyl)piperidin-1-yl)pyrimidine-4-carboxamide] | 1 to 31.6 nM and 1 to 10 nM | 1 to 100 nM | 1 to 100 nM |  | 
N#Cc1nccc(N2CCC(C(=O)N3N=CC[C@H]3c3cc(F)cc(F)c3)CC2)n1 [Example 89, (S)-4-(4-(5-(3,5-difluorophenyl)-4,5-dihydro-1H-pyrazole-1-carbonyl)piperidin-1-yl)pyrimidine-2-carbonitrile] |  | 1 to 100 nM |  | 1 to 100 nM | 
O=C(C1CCN(c2ncc3cn[nH]c3n2)CC1)N1N=CC[C@H]1c1ccccc1 [Example 52, (S)-(1-(1H-pyrazolo[3,4-d]pyrimidin-6-yl)piperidin-4-yl)(5-phenyl-4,5-dihydro-1H-pyrazol-1-yl)methanone] | 1 to 31.6 nM and 1 to 10 nM | 1 to 100 nM | 1 to 100 nM |  | 
O=C(C1CCN(c2nccc(SCc3ccccc3)n2)CC1)N1N=CC[C@H]1c1ccccc1 [Example 1, (S)-(1-(4-(benzylthio)pyrimidin-2-yl)piperidin-4-yl)(5-phenyl-4,5-dihydro-1H-pyrazol-1-yl)methanone] |  | 1 to 100 nM | 1 to 100 nM |  | 
Nc1nc(N2CCC(C(=O)N3N=CC[C@H]3c3ccccc3)CC2)ncc1F [Example 27, (S)-(1-(4-amino-5-fluoropyrimidin-2-yl)piperidin-4-yl)(5-phenyl-4,5-dihydro-1H-pyrazol-1-yl)methanone] | 1 to 31.6 nM and 1 to 10 nM | 1 to 100 nM | 1 to 100 nM |  | 
NC(=O)c1ccnc(N2CCC(C(=O)N3N=CC[C@H]3c3cc(F)cc(F)c3)CC2)n1 [Example 83, (S)-2-(4-(5-(3,5-difluorophenyl)-4,5-dihydro-1H-pyrazole-1-carbonyl)piperidin-1-yl)pyrimidine-4-carboxamide] | 1 to 31.6 nM and 1 to 10 nM | 1 to 100 nM | 1 to 100 nM |  | 
Cc1nnc(N2CCC(C(=O)N3N=CC[C@H]3c3cc(F)cc(F)c3)CC2)o1 [Example 77, (S)-(5-(3,5-difluorophenyl)-4,5-dihydro-1H-pyrazol-1-yl)(1-(5-methyl-1,3,4-oxadiazol-2-yl)piperidin-4-yl)methanone] |  |  |  | ~3160 nM | ~7.2
CSc1cc(N2CCC(C(=O)N3N=CC[C@H]3c3ccccc3)CC2)ncn1 [Example 59, (S)-(1-(6-(methylthio)pyrimidin-4-yl)piperidin-4-yl)(5-phenyl-4,5-dihydro-1H-pyrazol-1-yl)methanone] | 1 to 31.6 nM and 1 to 10 nM | 1 to 100 nM |  |  | 
COc1nccc(N2CCC(C(=O)N3N=CC[C@H]3c3ccccc3)CC2)n1 [Example 17, (S)-(1-(2-methoxypyrimidin-4-yl)piperidin-4-yl)(5-phenyl-4,5-dihydro-1H-pyrazol-1-yl)methanone] | 1 to 31.6 nM and 1 to 10 nM | 1 to 100 nM |  |  | 
Nc1cc(N2CCC(C(=O)N3N=CC[C@H]3c3cc(F)cc(F)c3)CC2)ncn1 [Example 98, (S)-(1-(6-aminopyrimidin-4-yl)piperidin-4-yl)(5-(3,5-difluorophenyl)-4,5-dihydro-1H-pyrazol-1-yl)methanone] | 1 to 31.6 nM and 1 to 10 nM | 1 to 100 nM |  |  | 
COc1ccnc(N2CCC(C(=O)N3N=CCC3c3ccccc3)CC2)n1 (racemic) [Example 3, (1-(4-methoxypyrimidin-2-yl)piperidin-4-yl)(5-phenyl-4,5-dihydro-1H-pyrazol-1-yl)methanone] | 1 to 31.6 nM | 1 to 100 nM |  |  | 
N#Cc1ccc(N2CCC(C(=O)N3N=CC[C@H]3c3ccccc3)CC2)nn1 [Example 42, (S)-6-(4-(5-phenyl-4,5-dihydro-1H-pyrazole-1-carbonyl)piperidin-1-yl)pyridazine-3-carbonitrile] | 1 to 31.6 nM | 1 to 100 nM |  |  | 
COc1cc(N2CCC(C(=O)N3N=CC[C@H]3c3ccccc3)CC2)ncn1 [Example 12, (S)-(1-(6-methoxypyrimidin-4-yl)piperidin-4-yl)(5-phenyl-4,5-dihydro-1H-pyrazol-1-yl)methanone] | 1 to 31.6 nM and 1 to 10 nM | 1 to 100 nM |  |  | 
N#Cc1csc(N2CCC(C(=O)N3N=CC[C@H]3c3ccccc3)CC2)n1 [Example 53, (S)-2-(4-(5-phenyl-4,5-dihydro-1H-pyrazole-1-carbonyl)piperidin-1-yl)thiazole-4-carbonitrile] | 1 to 31.6 nM and 1 to 10 nM | 1 to 100 nM |  |  | 
